According to patent US20260068885A1, “HERBICIDAL COMPOSITIONS” (BAYER AKTIENGESELLSCHAFT, priority 2022, published 2026):

Tests used:
Experiment in all cases: Post-emergence herbicidal action against harmful plants (greenhouse)
Type in all cases: in vivo
[1] = tested on: Xanthium strumarium (XANST); conditions: for Herbicidal efficacy [%] against XANST 10 DAT: application rate 0.3 g a.i./ha
[2] = tested on: Abutilon theophrasti (ABUTH)
Description: (§1) Seeds of monocotyledonous and dicotyledonous weed and crop plants are laid out in sandy loam soil in wood-fibre pots, covered with soil and cultivated in a greenhouse under good growth conditions. 2 to 3 weeks after sowing, the test plants are treated at the one-leaf stage. The compounds of the invention, formulated in the form of wettable powders (WP) or as emulsion concentrates (EC), are then sprayed onto the green parts of the plants in the form of an aqueous suspension or emulsion at a water application rate equivalent to 600 to 800 l/ha, with addition of 0.2% wetting agent. After the test plants have been […], the action of the preparations is assessed visually in comparison to untreated controls (herbicidal action in percent (%): 100% activity=the plants have died, 0% activity=like control plants). […] The tables below illustrate, in an illustrative manner, the post-emergence herbicidal action of the compounds of the invention, the herbicidal activity being stated in percent.
(§2) In the tables that follow, the abbreviations mean the following: • E: means the synergism value to be expected according to the Colby formula. • Δ SYN: means the difference between the actual and expected synergism value. • DAT: means days after treatment.

Solanum nigrum (SOLNI) = tested on: Solanum nigrum (SOLNI)
Description: as §1, §2

Emex australis (EMEAU) = tested on: Emex australis (EMEAU)
Description: (§3) Seeds of monocotyledonous and dicotyledonous weed and crop plants are laid out in sandy loam soil in wood-fibre pots, covered with soil and cultivated in a greenhouse under good growth conditions. 2 to 3 weeks after sowing, the test plants are treated at the one-leaf stage. The compounds of the invention, formulated in the form of wettable powders (WP) or as emulsion concentrates (EC), are then sprayed onto the green parts of the plants in the form of an aqueous suspension or emulsion at a water application rate equivalent to 600 to 800 l/ha, with addition of 0.2% wetting agent. After the test plants have been left to stand in the greenhouse under optimal growth conditions for about 3 weeks, the action of the preparations is assessed visually in comparison to untreated controls (herbicidal action in percent (%): 100% activity=the plants have died, 0% activity=like control plants). […] The tables below illustrate, in an illustrative manner, the post-emergence herbicidal action of the compounds of the invention, the herbicidal activity being stated in percent.
as §2

[3] = tested on: Sorghum halepense (SORHA)
Description: as §3, §2

[4] = tested on: Xanthium strumarium (XANST)
Description: as §3, §2

[5] = tested on: Polygonum convolvulus (POLCO)
Cyperus iria (CYPIR) = tested on: Cyperus iria (CYPIR)
Description: as §1, §2

[6] = tested on: Erigeron bonariensis (ERIBO)
Description: as §1, §2

[7] = tested on: Brachiaria platyphylla (BRAPP)
Description: as §3, §2

[8] = tested on: Pharbitis purpurea (PHBPU)
Setaria viridis (SETVI) = tested on: Setaria viridis (SETVI)
Description: as §1, §2

[9] = tested on: Euphorbia heterophylla (EPHHL); conditions: 21 DAT
Description: as §3, §2

[10] = application rate 0.025 g a.i./ha, 21 DAT
[11] = application rate 0.025 g a.i./ha
[12] = application rate 0.00625 g a.i./ha

C=C[C@]1(C(=O)N[C@H]2CO[C@@H](C(=O)OC)C2)CC(c2cc(F)cc(F)c2)=NO1 (relative stereo) [P1, methyl (2R*,4R*)-4-[[(5S)-3-(3,5-difluorophenyl)-5-vinyl-4H-isoxazole-5-carbonyl]amino]tetrahydrofuran-2-carboxylate]
Herbicidal efficacy [%] against XANST 10 DAT [1]: 60% | Herbicidal efficacy ([2]; ABUTH 10 DAT, 0.3 g a.i./ha): 70% | Herbicidal efficacy ([2]; ABUTH 21 DAT, 1.2 g a.i./ha): 85% | Herbicidal efficacy (Solanum nigrum (SOLNI); SOLNI 10 DAT, 0.3 g a.i./ha): 40% | Herbicidal efficacy (Emex australis (EMEAU); EMEAU 10 DAT, 1.2 g a.i./ha): 70% | Herbicidal efficacy (Emex australis (EMEAU); EMEAU 21 DAT, 1.2 g a.i./ha): 80% | Herbicidal efficacy [%] against SORHA 21 DAT ([3]; application rate 0.3 g a.i./ha): 90% | Herbicidal efficacy [%] against SORHA 21 DAT ([3]; application rate 1.2 g a.i./ha): 90% | Herbicidal efficacy [%] against XANST 21 DAT ([4]; application rate 0.3 g a.i./ha): 40%

C=C[C@]1(C(=O)N[C@H]2C=C[C@@H](C(=O)OC)C2)CC(c2cc(F)cc(F)c2)=NO1 [P2, methyl (1S,4R)-4-[[(5S)-3-(3,5-difluorophenyl)-5-vinyl-4H-isoxazole-5-carbonyl]amino]cyclopent-2-ene-1-carboxylate]
Herbicidal efficacy [%] against XANST 10 DAT [1]: 20% | Herbicidal efficacy ([5]; POLCO 21 DAT, 0.3 g a.i./ha): 90% | Herbicidal efficacy (Cyperus iria (CYPIR); CYPIR 10 DAT, 0.3 g a.i./ha): 50% | Herbicidal efficacy (Cyperus iria (CYPIR); CYPIR 10 DAT, 1.2 g a.i./ha): 88% | Herbicidal efficacy (Cyperus iria (CYPIR); CYPIR 21 DAT, 0.3 g a.i./ha): 40% | Herbicidal efficacy (Cyperus iria (CYPIR); CYPIR 21 DAT, 1.2 g a.i./ha): 88% | Herbicidal efficacy ([6]; ERIBO 10 DAT, 0.3 g a.i./ha): 0% | Herbicidal efficacy ([6]; ERIBO 21 DAT, 0.3 g a.i./ha): 0% | Herbicidal efficacy ([2]; ABUTH 10 DAT, 0.3 g a.i./ha): 20% | Herbicidal efficacy ([2]; ABUTH 10 DAT, 1.2 g a.i./ha): 30% | Herbicidal efficacy ([2]; ABUTH 21 DAT, 0.3 g a.i./ha): 10% | Herbicidal efficacy ([2]; ABUTH 21 DAT, 1.2 g a.i./ha): 20% | Herbicidal efficacy (Solanum nigrum (SOLNI); SOLNI 10 DAT, 0.3 g a.i./ha): 60% | Herbicidal efficacy (Solanum nigrum (SOLNI); SOLNI 21 DAT, 1.2 g a.i./ha): 40% | Herbicidal efficacy (Emex australis (EMEAU); EMEAU 21 DAT, 0.3 g a.i./ha): 88% | Herbicidal efficacy (Emex australis (EMEAU); EMEAU 21 DAT, 1.2 g a.i./ha): 88% | Herbicidal efficacy [%] against SORHA 10 DAT ([3]; application rate 0.3 g a.i./ha): 80% | Herbicidal efficacy [%] against XANST 21 DAT ([4]; application rate 0.3 g a.i./ha): 10% | Herbicidal efficacy ([7]; BRAPP 21 DAT, 0.3 g a.i./ha): 85%

Cc1cccc(C)c1-n1c(=O)c2cc(C(=O)C3C(=O)CCCC3=O)ccc2n(C)c1=O [benquitrione]
Herbicidal efficacy [%] against XANST 21 DAT ([1]; application rate 6 g a.i./ha, 21 DAT): 50% | Herbicidal efficacy ([5]; POLCO 10 DAT, 6 g a.i./ha): 20% | Herbicidal efficacy ([8]; PHBPU 10 DAT, 6 g a.i./ha): 40% | Herbicidal efficacy ([8]; PHBPU 21 DAT, 6 g a.i./ha): 20% | Herbicidal efficacy (Setaria viridis (SETVI); SETVI 10 DAT, 6 g a.i./ha): 88% | Herbicidal efficacy (Setaria viridis (SETVI); SETVI 21 DAT, 1.5 g a.i./ha): 50% | Herbicidal efficacy (Cyperus iria (CYPIR); CYPIR 10 DAT, 1.5 g a.i./ha): 40% | Herbicidal efficacy (Cyperus iria (CYPIR); CYPIR 21 DAT, 1.5 g a.i./ha): 30% | Herbicidal efficacy ([6]; ERIBO 10 DAT, 6 g a.i./ha): 85% | Herbicidal efficacy ([6]; ERIBO 21 DAT, 6 g a.i./ha): 85% | Herbicidal efficacy ([2]; ABUTH 10 DAT, 1.5 g a.i./ha): 20% | Herbicidal efficacy ([2]; ABUTH 10 DAT, 6 g a.i./ha): 40% | Herbicidal efficacy ([2]; ABUTH 21 DAT, 6 g a.i./ha): 10% | Herbicidal efficacy (Solanum nigrum (SOLNI); SOLNI 21 DAT, 6 g a.i./ha): 85% | Herbicidal efficacy [%] against SORHA 10 DAT ([3]; application rate 1.5 g a.i./ha): 10% | Herbicidal efficacy [%] against SORHA 21 DAT ([3]; application rate 1.5 g a.i./ha): 0% | Herbicidal efficacy [%] against SORHA 10 DAT ([3]; application rate 6 g a.i./ha): 20% | Herbicidal efficacy [%] against SORHA 21 DAT ([3]; application rate 6 g a.i./ha): 10% | Herbicidal efficacy ([7]; BRAPP 10 DAT, 1.5 g a.i./ha): 20% | Herbicidal efficacy ([7]; BRAPP 10 DAT, 6 g a.i./ha): 80% | Herbicidal efficacy ([7]; BRAPP 21 DAT, 1.5 g a.i./ha): 10% | Herbicidal efficacy ([7]; BRAPP 21 DAT, 6 g a.i./ha): 20%

COC(=O)[C@@H](C)O/N=C/c1cc(-n2c(=O)cc(C(F)(F)F)n(C)c2=O)c(F)cc1Cl [flufenoximacil]
Herbicidal efficacy [%] against POLCO 21 DAT [5, 10]: 60% | Herbicidal efficacy [%] against PHBPU 21 DAT [8, 10]: 75% | Herbicidal efficacy [%] against ERIBO 21 DAT [6, 11]: 40% | Herbicidal efficacy [%] against ERIBO 21 DAT ([6]; application rate 0.1 g a.i./ha): 60% | Herbicidal efficacy [%] against EMEAU 10 DAT (Emex australis (EMEAU); application rate 0.00625 g a.i./ha, 10 DAT): 50% | Herbicidal efficacy [%] against EMEAU 21 DAT (Emex australis (EMEAU); application rate 0.00625 g a.i./ha, 21 DAT): 10% | Herbicidal efficacy [%] against SORHA 10 DAT [3, 12]: 20% | Herbicidal efficacy [%] against XANST 21 DAT [4, 12]: 10% | Herbicidal efficacy [%] against EPHHL 21 DAT [9, 12]: 40% | Herbicidal efficacy [%] against EPHHL 21 DAT [9, 11]: 88%

CCn1ncc(C(=O)c2ccc(S(C)(=O)=O)c(OCCOC)c2C)c1OC(C)OC(=O)OC (stereo not shown) [tolpyralate]
Herbicidal efficacy ([5]; POLCO 10 DAT, 0.5 g a.i./ha): 30% | Herbicidal efficacy ([5]; POLCO 21 DAT, 0.5 g a.i./ha): 20% | Herbicidal efficacy ([8]; PHBPU 10 DAT, 0.5 g a.i./ha): 10% | Herbicidal efficacy ([8]; PHBPU 21 DAT, 0.5 g a.i./ha): 10% | Herbicidal efficacy (Setaria viridis (SETVI); SETVI 21 DAT, 0.5 g a.i./ha): 60% | Herbicidal efficacy (Setaria viridis (SETVI); SETVI 21 DAT, 2 g a.i./ha): 88% | Herbicidal efficacy (Cyperus iria (CYPIR); CYPIR 10 DAT, 0.5 g a.i./ha): 40% | Herbicidal efficacy (Cyperus iria (CYPIR); CYPIR 21 DAT, 0.5 g a.i./ha): 20% | Herbicidal efficacy (Cyperus iria (CYPIR); CYPIR 21 DAT, 2 g a.i./ha): 30% | Herbicidal efficacy ([6]; ERIBO 10 DAT, 2 g a.i./ha): 90% | Herbicidal efficacy ([6]; ERIBO 21 DAT, 2 g a.i./ha): 85% | Herbicidal efficacy [%] against SOLNI 21 DAT (Solanum nigrum (SOLNI); application rate 0.5 g a.i./ha, 21 DAT): 85% | Herbicidal efficacy [%] against SORHA 10 DAT ([3]; application rate 2 g a.i./ha): 85% | Herbicidal efficacy [%] against SORHA 21 DAT ([3]; application rate 2 g a.i./ha): 50% | Herbicidal efficacy [%] against XANST 21 DAT ([4]; application rate 0.5 g a.i./ha): 30% | Herbicidal efficacy [%] against XANST 21 DAT ([4]; application rate 2 g a.i./ha): 70% | Herbicidal efficacy ([7]; BRAPP 10 DAT, 0.5 g a.i./ha): 30% | Herbicidal efficacy ([7]; BRAPP 21 DAT, 0.5 g a.i./ha): 20% | Herbicidal efficacy ([7]; BRAPP 21 DAT, 2 g a.i./ha): 80%
